Where “and” joins values, the source holds several entries; their conditions need not be identical. Equal values may be shown once.
Assays:
[1] = Radiotracer production data: stability of the product to in vivo experiments; assay type: physicochemical
PC3 mock tumor = assay: Small-animal PET, uptake in mock tumor; conditions: for SUVmax PC3 mock tumor: tracer only; for SUVmax PC3 mock tumor +block: blocker i.v. before tracer: Cu-1 100 nmol 1, Cu-2 100 nmol 2, Cu-3 1000 nmol 4, Cu-4 500 nmol 4, Cu-6 250 nmol 1 (~5 min prior), Cu-5 100 nmol 5 (~30 min prior); for blocking effect on SUVmax in the mock tumor: 24–25 h p.i., blocker: Cu-1, Cu-2 100 nmol unlabeled compound, Cu-3 1000 nmol 4
Description: (§1) Changes are reported as % change of the SUVmax of the PD-L1 expressing over the respective value of the mock tumor. Similarly, the effect of blocking is reported as % change of the SUVmax of the animal injected with cold compound over that of the animal that received tracer only.
(§2) Animal experiments were performed in accordance with the guidelines of the German Regulations for Animal Welfare, approved by the Saxonian Ethical Committee for Animal Experiments (reference number DD24.1-5131/449/49). Male athymic NMRI-nude mice (Rj: NMRI-Foxn1^nu/nu, Janvier Laboratories, Le Genest-Saint-Isle, France) between 8 and 22 weeks of age were used. Under general anesthesia, [∼10% desflurane (Baxter, Deerfield, IL, USA) in 30 vol % oxygen + air] and warming, the animals were subcutaneously injected with 3–5 × 10^6 PC3-PD-L1 and PC3-mock cells [in 50 μL PBS +50 μL Matrigel (Corning, Glendale, USA)] into the right and left thigh, respectively. Tumor growth was monitored three times a week by caliper measurements, and mice with tumor sizes above 7 mm were included in the experiments.
(§3) For PET studies, general anesthesia was induced as described above. PET and X-ray computed tomography (CT) were performed in a dedicated small animal nanoScan PET/CT scanner, with four animals imaged simultaneously (Mediso, Budapest, Hungary). CT images were employed for attenuation correction and anatomical referencing. Animals received three individual scans corresponding to 0–2 h (dynamic) and 4.5 and 24 h (static) postinjection.
(§4) PD-L1 radiotracer candidates (in 300 μL sterile 0.9% NaCl/HEPES buffer, pH 6–7, between 7 and 12 MBq, molar activities > 12 GBq/μmol) were delivered over 30 s i.v. (lateral tail vein) and PET acquisition started simultaneously. For blocking condition, a defined quantity of compound (the same unlabeled compound, one from the same series or BMS-1166) was diluted in sterile saline and injected i.v. approximately 5 min prior to the radiotracer. Animals not subjected to blocking were injected with vehicle at the same time.
(§5) Three-dimensional list mode data were binned using the 400–600 keV energy window and sorted into 36 time frames (15 × 10 s, 5 × 30 s, 5 × 60 s, 4 × 300 s, 3 × 600 s, 4 × 900 s). Time frames were reconstructed using the Tera-TomoTM 3D algorithm applying a voxel size of 0.4 mm and corrections for decay, scatter, and attenuation.
(§6) Three-dimensional volumes of interest were delineated applying fixed thresholding at 35% of the measured maximum intensity. Standardized uptake values (SUV = [MBq detected activity/mL tissue]/[MBq injected activity/g body weight], […]) were determined in selected volumes of interest, among these PD-L1 and mock tumors.
(§7) 14. In vivo: PET- SUV data
(§8) Standardized uptake values (SUVmax)
(§9) Supplementary table 1: In vivo standardized uptake values (SUVmax ± standard deviation) of 64Cu-labeled third series compounds [64Cu]Cu-1-6 at 1.5 (1–2), 4.5 (4–5) and 24.5 (24–25) hours
(§10) post injection (p.i.). Compounds used for blocking are described for each tracer and were intravenously injected in sterile saline at stated time before the radiotracer. Animals designated for
(§11) tracer-only received matched type and volume of vehicle at the same time.

PD-L1 = target: T1, PD-L1 (Homo sapiens, UniProt Q9NZQ7); assay: Real-time radioligand binding (LigandTracer) on PC3 PD-L1 cells; conditions: for Kd: real-time binding
T1 construct: expressed in transfected cells; host or cells: PC3 cells (human prostate carcinoma), stably transduced
T1 sequence (Q9NZQ7 19-290): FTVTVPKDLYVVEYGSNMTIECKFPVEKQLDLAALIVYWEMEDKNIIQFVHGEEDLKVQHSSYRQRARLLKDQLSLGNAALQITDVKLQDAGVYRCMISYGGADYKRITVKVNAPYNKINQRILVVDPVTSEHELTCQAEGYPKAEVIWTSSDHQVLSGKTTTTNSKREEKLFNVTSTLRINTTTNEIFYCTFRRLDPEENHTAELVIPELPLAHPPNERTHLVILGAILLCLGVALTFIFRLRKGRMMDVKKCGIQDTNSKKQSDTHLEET
Description: Real-time radioligand binding using the ligand tracer platform was performed, similar to our previously reported tracer candidates. As we aimed at reducing the albumin binding of the herein presented compounds, we performed measurements in the presence or absence of a mouse physiological concentration of BSA (2.5 g/dL).
For real-time binding to assess kinetics (association rate constant ka and dissociation rate constant kd) and dissociation constant (KD), LigandTracer (Yellow, Ridgeview Instruments AB, Sweden) was employed. Approximately 1.2 × 10^6 cells (in 3 mL medium) were seeded to one side of a Petri dish (Nunc) 1 day prior to experiments as described before.[45] Binding was then performed at room temperature (using CO2-independent medium, Gibco #18045088, Thermo Fisher Germany) with or without BSA (2.5%). First, association was determined by incubation with two concentrations (10 and 40 nM, 90 min each) of the ^64Cu-labeled PD-L1 ligands. Dissociation was then assessed by replacement with fresh medium for at least 2 h. Data were acquired in decay-corrected counts per second (CPS), and binding data were then evaluated using TraceDrawer (1.9.2, Ridgeview Instruments AB, Sweden). Traces were inspected for spikes and irregularities and then normalized to their own baseline (=0%) and highest value (=100%). Data were then fitted using a one-to-one interaction, accounting for the bulk effect.

[2] = tested on: PC3 PD-L1-overexpressing tumor; assay: Small-animal PET, uptake in PD-L1-overexpressing tumor; conditions: for SUVmax PC3 PD-L1 overexpressing tumor: tracer only; for SUVmax PC3 PD-L1 overexpressing tumor +block: blocker i.v. before tracer: Cu-1 100 nmol 1, Cu-2 100 nmol 2, Cu-3 1000 nmol 4, Cu-4 500 nmol 4, Cu-6 250 nmol 1 (~5 min prior), Cu-5 100 nmol 5 (~30 min prior)
Description: as §1, §2, §3, §4, §5, §6, §7, §8, §9, §10, §11

[3] = Small-animal PET, excretion pattern; assay type: in vivo, mouse; conditions: PET 0–2, 4–5 and 24–25 h p.i., i.v.
Description: Time points of PET imaging were 0–2, 4–5, and 24–25 h post injection (p.i.).

[4] = medium only (no BSA), n = 2, mean ± S.D.
[5] = medium only (no BSA), n = 2, mean ± S.D., room temperature

Structure (SMILES) | Stability of the product to in vivo experiments [1] [%] | SUVmax PC3 mock tumor (PC3 mock tumor; 1.5 (1–2) hours p.i.) | SUVmax PC3 mock tumor +block (PC3 mock tumor; 1.5 (1–2) hours p.i.) | SUVmax PC3 mock tumor (PC3 mock tumor; 4.5 (4–5) hours p.i.) | SUVmax PC3 mock tumor +block (PC3 mock tumor; 4.5 (4–5) hours p.i.) | blocking effect on SUVmax in the mock tumor (PC3 mock tumor) [%] | SUVmax PC3 mock tumor (PC3 mock tumor; 24.5 (24–25) hours p.i.) | SUVmax PC3 mock tumor +block (PC3 mock tumor; 24.5 (24–25) hours p.i.) | Bmax [normalized (%)] (PD-L1; medium + 2.5% BSA, n = 1) [%] | ka (association rate constant) (PD-L1; medium + 2.5% BSA, n = 1) [M/s] | Bmax [normalized (%)] (PD-L1; [4]) [%] | ka (association rate constant) (PD-L1; [5]) | Kd (PD-L1; medium + 2.5% BSA, n = 1) [nM] | Kd (PD-L1; [4]) | SUVmax PC3 PD-L1 overexpressing tumor ([2]; 1.5 (1–2) hours p.i.) | SUVmax PC3 PD-L1 overexpressing tumor +block ([2]; 1.5 (1–2) hours p.i.) | SUVmax PC3 PD-L1 overexpressing tumor ([2]; 4.5 (4–5) hours p.i.) | SUVmax PC3 PD-L1 overexpressing tumor +block ([2]; 4.5 (4–5) hours p.i.) | SUVmax PC3 PD-L1 overexpressing tumor ([2]; 24.5 (24–25) hours p.i.) | SUVmax PC3 PD-L1 overexpressing tumor +block ([2]; 24.5 (24–25) hours p.i.) | further results
Cc1c(COc2cc(OCc3cncc(C#N)c3)c(CN[C@@H](CS(=O)(=O)O)C(=O)NCCS(=O)(=O)O)cc2Cl)cccc1-c1cccc(OCc2cn(CCCN3CCN(C(=O)[C@H](CS(=O)(=O)O)NC(=O)CC[C@H](C(=O)O)N4CCN(CC(=O)O)CCN(CC(=O)O)CC4)CC3)nn2)c1C.[64Cu+2] [[^64Cu]Cu-1] | > 99 | 1.0 | 1.4 | 0.8 | 1.0 | −41 to −54 | 1.2 | 0.7 | 76.2 | 1410 | 186 ± 40.2 | (2.85 ± 0.07) × 10^3 (M s)^−1 | 119 | 60 nM and 60.2 nM | 1–1.5 | 1.3 | 1.1 | 1.0 | 1.4 | 1.1 | fold change of real-time binding affinity in presence vs absence of BSA (PD-L1; in either direction): ≤ 2 fold; SUVmax PC3 PD-L1 overexpressing tumor ([2]; 1.5 (1–2) hours p.i., listed as [64Cu]Cu-1): 1.5; excretion / clearance pattern (PET) [3]: mixed hepatobiliary and renal clearance
Cc1c(COc2cc(OCc3cncc(S(C)(=O)=O)c3)c(CN[C@@H](CS(=O)(=O)O)C(=O)NCCS(=O)(=O)O)cc2Cl)cccc1-c1cccc(OCc2cn(CCCN3CCN(C(=O)[C@H](CS(=O)(=O)O)NC(=O)CC[C@H](C(=O)O)N4CCN(CC(=O)O)CCN(CC(=O)O)CC4)CC3)nn2)c1C.[64Cu+2] [[^64Cu]Cu-3] | > 99 | 0.85 ± 0.05 | 0.80 ± 0.1 | 0.55 ± 0.15 | 0.55 ± 0.05 | 36 | 0.7 ± 0.2 | 0.45 ± 0.05 | 46.6 | 2970 | 95.9 ± 6.49 | (6.59 ± 0.50) × 10^3 (M s)^−1 | 54.3 | 21 nM and 20.9 nM | 3.5 | 1.0 ± 0.1 | 2.6 ± 0.1 | 0.7 ± 0.3 | 1.35 | 0.65 ± 0.05 | blocking effect in the mock tumor (PC3 mock tumor; 1–2 and 4–5 h p.i., 1000 nmol unlabeled compound 4): negligible; blocking effect: % change of SUVmax in PD-L1 tumor vs tracer-only ([2]; 1–2 h (1.5 h) p.i., blocker: Cu-3 1000 nmol 4, Cu-4 500/1000 nmol 4, Cu-5 100 nmol 5, Cu-6 250 nmol BMS-1166): −71%; % change of SUVmax of the PD-L1 expressing tumor over the mock tumor ([2]; 1–2 h p.i.): 311%; SUVmax PC3 PD-L1 overexpressing tumor ([2]; 1.5 (1–2) hours p.i., listed as [64Cu]Cu-3): 3.5 ± 0.2; blocking effect: % change of SUVmax in PD-L1 tumor vs tracer-only ([2]; 4–5 h (4.5 h) p.i., blocker: Cu-3 1000 nmol 4, Cu-4 500/1000 nmol 4, Cu-5 100 nmol 5, Cu-6 250 nmol BMS-1166): −73%; % change of SUVmax of the PD-L1 expressing tumor over the mock tumor ([2]; 4–5 h p.i.): 372%; blocking effect: % change of SUVmax in PD-L1 tumor vs tracer-only ([2]; 24–25 h (24.5 h) p.i., blocker: Cu-1, Cu-2 100 nmol unlabeled compound, Cu-3 1000 nmol 4, Cu-4 500/1000 nmol 4, Cu-5 100 nmol 5, Cu-6 250 nmol BMS-1166): −52%; % change of SUVmax of the PD-L1 expressing tumor over the mock tumor ([2]; 24–25 h p.i.): 93%; SUVmax PC3 PD-L1 overexpressing tumor ([2]; 24.5 (24–25) hours p.i., listed as [64Cu]Cu-3): 1.35 ± 0.15; blocking effect of BMS-1166 on SUVmax / tumor uptake ([2]; any time point, Cu-3: 750 nmol BMS-1166 intraperitoneally 60 min prior, Cu-6: 250 nmol BMS-1166 5 min before): no effect; excretion / clearance pattern (PET) [3]: predominantly a fast renal and lower hepatobiliary clearance
